The target in assay [1] is Acetylcholinesterase from electric eel (eeAChE, type VI-S) (Electrophorus electricus, UniProt O42275). Description: biochemical.
For assay [2], the target named is T1, butyrylcholinesterase from equine serum (eqBChE, E.C. 3.1.1.8) (Equus caballus, UniProt P81908).
T1 construct: butyrylcholinesterase from equine serum (eqBChE, E.C. 3.1.1.8); purchased Sigma Aldrich; host or cells: equine serum
Description: biochemical.

Where [3] appears, read: eeAChE, Ellman assay, triplicate.
The mark [4] stands for this setting: eqBChE, Ellman assay, triplicate.

Where two headings read alike, the source gives them in different places. Bounds are passed on as bounds.

Acetylcholinesterase from electric eel (eeAChE, type VI-S), sequence (O42275 24-633): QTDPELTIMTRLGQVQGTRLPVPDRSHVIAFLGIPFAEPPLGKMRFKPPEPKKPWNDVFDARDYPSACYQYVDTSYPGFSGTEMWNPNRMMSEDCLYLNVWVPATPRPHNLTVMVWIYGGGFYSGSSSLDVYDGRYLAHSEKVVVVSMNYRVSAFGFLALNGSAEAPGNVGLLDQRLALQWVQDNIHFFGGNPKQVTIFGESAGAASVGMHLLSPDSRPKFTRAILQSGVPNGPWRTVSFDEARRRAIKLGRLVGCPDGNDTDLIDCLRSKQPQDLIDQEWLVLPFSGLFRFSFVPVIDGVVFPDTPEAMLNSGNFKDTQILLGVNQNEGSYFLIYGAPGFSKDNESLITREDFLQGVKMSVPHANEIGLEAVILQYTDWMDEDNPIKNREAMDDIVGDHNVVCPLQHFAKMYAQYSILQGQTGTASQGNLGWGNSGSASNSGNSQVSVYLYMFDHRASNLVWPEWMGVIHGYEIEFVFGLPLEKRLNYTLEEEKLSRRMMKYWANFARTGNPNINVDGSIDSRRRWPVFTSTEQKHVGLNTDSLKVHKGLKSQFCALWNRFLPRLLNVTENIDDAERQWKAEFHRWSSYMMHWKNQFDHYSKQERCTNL
T1 sequence (P81908 whole entry): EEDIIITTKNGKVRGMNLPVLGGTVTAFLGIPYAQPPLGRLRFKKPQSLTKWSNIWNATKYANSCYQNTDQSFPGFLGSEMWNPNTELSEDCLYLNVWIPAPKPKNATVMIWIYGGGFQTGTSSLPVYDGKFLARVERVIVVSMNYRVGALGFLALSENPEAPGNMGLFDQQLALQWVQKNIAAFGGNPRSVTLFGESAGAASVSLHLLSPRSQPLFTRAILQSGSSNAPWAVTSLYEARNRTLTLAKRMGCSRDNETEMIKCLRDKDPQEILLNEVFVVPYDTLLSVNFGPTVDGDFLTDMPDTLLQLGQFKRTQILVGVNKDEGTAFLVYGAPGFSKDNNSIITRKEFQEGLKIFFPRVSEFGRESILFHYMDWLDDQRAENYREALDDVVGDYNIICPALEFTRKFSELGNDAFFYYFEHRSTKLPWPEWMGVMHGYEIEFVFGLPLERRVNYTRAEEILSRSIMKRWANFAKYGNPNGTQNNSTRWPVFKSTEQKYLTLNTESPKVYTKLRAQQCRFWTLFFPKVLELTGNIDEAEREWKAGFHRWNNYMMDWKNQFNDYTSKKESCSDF

With `Cc1ccc(Cn2nnc3ccc4sccc4c32)cc1` [Compound 14, 1-(4-methylbenzyl)-1H-thieno [3’,2’:3,4]benzo [1,2-d][1,2,3]triazole], the values for the half-inhibitory concentration (IC50) in assay [1] (setting [3]) and in assay [2] (setting [4]) were 117 µM and 24.3 µM, respectively.

Turning to `Clc1ccc(Cn2nnc3ccc4sccc4c32)cc1` [Compound 15, 1-(4-chlorobenzyl)-1H-thieno [3’,2’:3,4]benzo [1,2-d][1,2,3]triazole], the concentration for half-maximal inhibition (IC50) in assay [1] (setting [3]) worked out at 77 µM; in assay [2] (setting [4]), 34.6 µM.

In the case of `Cc1cccc(Cn2nnc3ccc4sccc4c32)c1` [Compound 16, 1-(3-methylbenzyl)-1H-thieno [3’,2’:3,4]benzo [1,2-d][1,2,3]triazole], the half-inhibitory concentration (IC50) is 77.1 µM in assay [1] (setting [3]) and 2.9 µM in assay [2] (setting [4]).

With `Cc1ccc(Cn2nnc3ccc4sc(C)cc4c32)cc1` [Compound 17, 7-methyl-1-(4-methylbenzyl)-1H-thieno [3’,2’:3,4]benzo [1,2-d][1,2,3]triazole], the IC50 was over 250 µM in assay [1] (setting [3]) and 57.6 µM in assay [2] (setting [4]).

Turning to `Cc1cc2c(ccc3nnn(Cc4ccc(Cl)cc4)c32)s1` [Compound 18, 1-(4-chlorobenzyl)-7-methyl-1H-thieno [3’,2’:3,4]benzo [1,2-d][1,2,3]triazole], the IC50 in assay [1] (setting [3]) was over 100 µM; in assay [2] (setting [4]), 59 µM.

Regarding `Cc1cccc(Cn2nnc3ccc4sc(C)cc4c32)c1` [Compound 19, 7-methyl-1-(3-methylbenzyl)-1H-thieno [3’,2’:3,4]benzo [1,2-d][1,2,3]triazole], the concentration for half-maximal inhibition (IC50) is over 250 µM in assay [1] (setting [3]) and 70.3 µM in assay [2] (setting [4]).

Turning to `COc1cccc(Cn2nnc3ccc4sc(C)cc4c32)c1` [Compound 20, 1-(3-methoxybenzyl)-7-methyl-1H-thieno [3’,2’:3,4]benzo [1,2-d][1,2,3]triazole], the IC50 in assay [1] (setting [3]) was 186 µM; in assay [2] (setting [4]), 90.2 µM.

`Cc1cc2c(ccc3nnn(Cc4cccc(F)c4)c32)s1` [Compound 21, 1-(3-fluorobenzyl)-7-methyl-1H-thieno [3’,2’:3,4]benzo [1,2-d][1,2,3]triazole]: the IC50 in assay [1] (setting [3]) came out at 465 µM; in assay [2] (setting [4]), 172 µM.

For the compound `Cc1ccc(Cn2n[n+](C)c3ccc4sccc4c32)cc1` [Compound 22, 3-methyl-1-(4-methylbenzyl)-1H-thieno [3’,2’:3,4]benzo [1,2-d][1,2,3]triazol-3-ium], the concentration for half-maximal inhibition (IC50) in assay [1] stood at 39.2 µM; in assay [2], 1 µM.

For the compound `C[n+]1nn(Cc2ccc(Cl)cc2)c2c3ccsc3ccc21` [Compound 23, 1-(4-chlorobenzyl)-3-methyl-1H-thieno [3’,2’:3,4]benzo [1,2-d][1,2,3]triazol-3-ium], the half-inhibitory concentration (IC50) in assay [1] stood at 4.4 µM; in assay [2], 0.47 µM.

Regarding `Cc1cccc(Cn2n[n+](C)c3ccc4sccc4c32)c1` [Compound 24, 3-methyl-1-(3-methylbenzyl)-1H-thieno [3’,2’:3,4]benzo [1,2-d][1,2,3]triazol-3-ium], the half-inhibitory concentration (IC50) is 55.1 µM in assay [1] (setting [3]) and 7 µM in assay [2] (setting [4]).

For `Cc1ccc(Cn2n[n+](C)c3ccc4sc(C)cc4c32)cc1` [Compound 25, 3,7-dimethyl-1-(4-methylbenzyl)-1H-thieno [3’,2’:3,4]benzo [1,2-d][1,2,3]triazol-3-ium], the 50% inhibitory concentration (IC50) in assay [1] stood at 211 µM; in assay [2], 102 µM.

For `Cc1cc2c(ccc3c2n(Cc2ccc(Cl)cc2)n[n+]3C)s1` [Compound 26, 1-(4-chlorobenzyl)-3,7-dimethyl-1H-thieno [3’,2’:3,4]benzo [1,2-d][1,2,3]triazol-3-ium], the IC50 in assay [1] (setting [3]) turned out to be 8.1 µM; in assay [2] (setting [4]), 13.4 µM.

Take `Cc1cccc(Cn2n[n+](C)c3ccc4sc(C)cc4c32)c1` [Compound 27, 3,7-dimethyl-1-(3-methylbenzyl)-1H-thieno [3’,2’:3,4]benzo [1,2-d][1,2,3]triazol-3-ium]: the results for the IC50 in assay [1] (setting [3]) and in assay [2] (setting [4]) were 8.3 µM and 9.7 µM, respectively.

Take `COc1cccc(Cn2n[n+](C)c3ccc4sc(C)cc4c32)c1` [Compound 28, 1-(3-methoxybenzyl)-3,7-dimethyl-1H-thieno [3’,2’:3,4]benzo [1,2-d][1,2,3]triazol-3-ium]: the values for the IC50 in assay [1] (setting [3]) and in assay [2] (setting [4]) were 54.8 µM and 10.6 µM, respectively.

Turning to `C[n+]1nn(Cc2cccc(Cl)c2)c2c3ccsc3ccc21` [Compound 30, 1-(3-chlorobenzyl)-3-methyl-1H-thieno [3’,2’:3,4]benzo [1,2-d][1,2,3]triazol-3-ium], the IC50 stood at 12.2 µM in assay [1] and 2.7 µM in assay [2].

On to `C[n+]1nn(Cc2ccco2)c2c3ccsc3ccc21` [Compound 31, 1-(furan-2-ylmethyl)-3-methyl-1H-thieno [3’,2’:3,4]benzo [1,2-d][1,2,3]triazol-3-ium], for which the results for the concentration for half-maximal inhibition (IC50) in assay [1] (setting [3]) and in assay [2] (setting [4]) were 157 µM and 16.1 µM, respectively.
